Results taken from ChEMBL document CHEMBL1141755, “Flavonoids from the stem of Eriophorum scheuchzeri” (J Nat Prod, 2005).
Calls of active or inactive are those of the source. The rule behind the calls is not given here.

Experiments:
[1] = test system: Candida albicans; experiment: Antifungal activity against Candida albicans at 5 ug after 3 days by MTT assay; type: functional, organism-based
[2] = test system: Candida albicans; experiment: Antifungal activity against Candida albicans at 10 ug after 3 days by MTT assay; type: functional, organism-based
[3] = test system: Radical scavenging activity; experiment: Antioxidant activity assessed as DPPH radical scavenging activity at 5 ug; type: functional
[4] = test system: Cladosporium cucumerinum; experiment: Antifungal activity against Cladosporium cucumerinum at 1 ug after 3 days by MTT assay; type: functional, organism-based
[5] = test system: Radical scavenging activity; experiment: Antioxidant activity assessed as DPPH radical scavenging activity at 10 ug; type: functional
[6] = test system: Cladosporium cucumerinum; experiment: Antifungal activity against Cladosporium cucumerinum at 5 ug after 3 days by MTT assay; type: functional, organism-based
[7] = test system: Cladosporium cucumerinum; experiment: Antifungal activity against Cladosporium cucumerinum at 10 ug after 3 days by MTT assay; type: functional, organism-based
[8] = test system: Radical scavenging activity; experiment: Antioxidant activity assessed as DPPH radical scavenging activity at 1 ug; type: functional

Row | SMILES | Activity [1] | Activity [2] | Activity [3] | Activity [4] | Activity [5] | Activity [6] | Activity [7] | Activity [8]
1 | C=C(C)C(O)Cc1c(O)cc(O)c2c1OC(c1ccc(O)cc1)CC2=O (centres undefined) | Active | Active | Active | inactive | Active | Active | Active | Active
2 | COc1cc(O)c2c(=O)c(-c3ccc(O)c(C)c3OC)coc2c1 | inactive | inactive | inactive | Active | inactive | Active | Active | inactive
3 | COc1cc(O)c2c(=O)c(-c3ccc(O)cc3O)coc2c1 | inactive | inactive | inactive | Active | inactive | Active | Active | inactive
4 | COc1cc(O)c2c(=O)c(-c3ccc(O)cc3OC)coc2c1 | inactive | inactive | Active | inactive | Active | inactive | inactive | inactive
5 | COc1cc(O)c2c(=O)c(-c3ccc(O)c(C)c3O)coc2c1 | Active | Active | Active | inactive | Active | inactive | Active | Active
6 | CC1(C)C=Cc2c(cc3occ(-c4ccc(O)cc4O)c(=O)c3c2O)O1 | Active | Active | Active | Active | Active | Active | Active | Active
7 | COc1cc(-c2cc(=O)c3c(O)cc(O)cc3o2)cc(OC)c1O | inactive | inactive | Active | inactive | Active | inactive | inactive | Active
8 | CC1(C)C=Cc2c(cc(O)c3c(=O)c(-c4ccc(O)cc4O)coc23)O1 | Active | Active | Active | Active | Active | Active | Active | Active
